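Protocol summary: plate cells (96-well), add compound at 5 concentrations, incubate 48 h, interpolate endpoints linearly. TGI denotes the concentration required for complete inhibition of growth.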
What was measured:
Assay in all cases: NCI-60 cell line screen, 48 h
[1] = tested on: OVCAR-8 ovarian
[2] = tested on: NCI-H522 lung
[3] = tested on: MALME-3M melanoma
[4] = tested on: SK-MEL-2 melanoma
[5] = tested on: A549 NSCLC
[6] = tested on: SNB-75 CNS
[7] = tested on: SNB-19 CNS
[8] = tested on: ACHN renal
[9] = tested on: SK-OV-3 ovarian
[10] = tested on: SK-MEL-5 melanoma
[11] = tested on: UACC-257 melanoma
[12] = tested on: MDA-MB-435
[13] = tested on: COLO 205 colon
[14] = tested on: UACC-62 melanoma
[15] = tested on: HT29 colon
[16] = tested on: SN12C renal
[17] = tested on: EKVX NSCLC
[18] = tested on: SF-268 CNS
[19] = tested on: OVCAR-5 ovarian
[20] = tested on: HL-60(TB) leukemia
[21] = tested on: OVCAR-4 ovarian
[22] = tested on: LOX IMVI melanoma
[23] = tested on: HCT-116 colon
[24] = tested on: BT-549 breast
[25] = tested on: RXF 393 renal
[26] = tested on: HS 578T breast
[27] = tested on: HCT-15 colon
[28] = tested on: RPMI-8226 leukemia
[29] = tested on: 786-0 renal
[30] = tested on: CAKI-1 renal
[31] = tested on: DU-145 prostate
[32] = tested on: MDA-MB-231 breast
[33] = tested on: MCF7 breast
[34] = tested on: U251 CNS
[35] = tested on: T-47D breast
[36] = tested on: M14 melanoma
[37] = tested on: NCI/ADR-RES ovarian
[38] = tested on: K-562 leukemia
[39] = tested on: KM12 colon
[40] = tested on: PC-3 prostate
[41] = tested on: CCRF-CEM leukemia
[42] = tested on: SR leukemia
[43] = tested on: UO-31 renal
[44] = tested on: NCI-H23 lung
[45] = tested on: SF-295 CNS
[46] = tested on: SF-539 CNS
[47] = tested on: IGROV1 ovarian
[48] = tested on: TK-10 renal
[49] = tested on: NCI-H460 lung
[50] = tested on: SW-620 colon
[51] = tested on: HCC-2998 colon
[52] = tested on: HOP-92 NSCLC
[53] = tested on: HOP-62 NSCLC
[54] = tested on: OVCAR-3 ovarian
[55] = tested on: MOLT-4 leukemia
[56] = tested on: MDA-N
[57] = tested on: SK-MEL-28 melanoma
[58] = tested on: NCI-H226 lung
[59] = tested on: A498 renal

**Q.** For `O=c1oc2c(Cl)cc(Cl)cc2cc1-c1cn2c(n1)sc1ccccc12`, which TGI [1] is on record?
**A.** > 100 µM

**Q.** And the TGI [2]?
**A.** 88.8 µM

**Q.** What about the TGI [3] of the same compound?
**A.** > 100 µM

**Q.** And the TGI [4]?
**A.** > 100 µM

**Q.** What about the TGI [5] of the same compound?
**A.** > 100 µM

**Q.** What about the TGI [6] of the same compound?
**A.** > 100 µM

**Q.** What about the TGI [7] of the same compound?
**A.** > 100 µM

**Q.** And the TGI [8]?
**A.** > 100 µM

**Q.** And the TGI [9]?
**A.** > 100 µM

**Q.** And the TGI [10]?
**A.** > 100 µM

**Q.** What about the TGI [11] of the same compound?
**A.** > 100 µM

**Q.** What about the TGI [12] of the same compound?
**A.** > 100 µM

**Q.** And the TGI [13]?
**A.** > 100 µM

**Q.** What about the TGI [14] of the same compound?
**A.** > 100 µM

**Q.** What about the TGI [15] of the same compound?
**A.** > 100 µM

**Q.** What about the TGI [16] of the same compound?
**A.** > 100 µM

**Q.** What about the TGI [17] of the same compound?
**A.** > 100 µM

**Q.** What about the TGI [18] of the same compound?
**A.** > 100 µM

**Q.** What about the TGI [19] of the same compound?
**A.** > 100 µM

**Q.** What about the TGI [20] of the same compound?
**A.** 66.9 µM

**Q.** And the TGI [21]?
**A.** > 100 µM

**Q.** What about the TGI [22] of the same compound?
**A.** > 100 µM

**Q.** And the TGI [23]?
**A.** > 100 µM

**Q.** And the TGI [24]?
**A.** 87.4 µM

**Q.** What about the TGI [25] of the same compound?
**A.** > 100 µM

**Q.** And the TGI [26]?
**A.** > 100 µM

**Q.** And the TGI [27]?
**A.** > 100 µM

**Q.** And the TGI [28]?
**A.** 89.1 µM

**Q.** What about the TGI [29] of the same compound?
**A.** > 100 µM

**Q.** What about the TGI [30] of the same compound?
**A.** > 100 µM

**Q.** And the TGI [31]?
**A.** > 100 µM

**Q.** And the TGI [32]?
**A.** > 100 µM

**Q.** What about the TGI [33] of the same compound?
**A.** > 100 µM

**Q.** What about the TGI [34] of the same compound?
**A.** > 100 µM

**Q.** And the TGI [35]?
**A.** > 100 µM

**Q.** And the TGI [36]?
**A.** > 100 µM

**Q.** What about the TGI [37] of the same compound?
**A.** > 100 µM

**Q.** What about the TGI [38] of the same compound?
**A.** 53.3 µM

**Q.** What about the TGI [39] of the same compound?
**A.** > 100 µM

**Q.** And the TGI [40]?
**A.** > 100 µM

**Q.** And the TGI [41]?
**A.** 55.6 µM

**Q.** And the TGI [42]?
**A.** 53.1 µM

**Q.** And the TGI [43]?
**A.** > 100 µM

**Q.** What about the TGI [44] of the same compound?
**A.** > 100 µM

**Q.** And the TGI [45]?
**A.** > 100 µM

**Q.** And the TGI [46]?
**A.** > 100 µM

**Q.** What about the TGI [47] of the same compound?
**A.** > 100 µM

**Q.** And the TGI [48]?
**A.** > 100 µM

**Q.** And the TGI [49]?
**A.** > 100 µM

**Q.** And the TGI [50]?
**A.** 92.4 µM

**Q.** And the TGI [51]?
**A.** 95 µM

**Q.** And the TGI [52]?
**A.** > 100 µM

**Q.** What about the TGI [53] of the same compound?
**A.** > 100 µM

**Q.** And the TGI [54]?
**A.** > 100 µM

**Q.** What about the TGI [55] of the same compound?
**A.** 52 µM

**Q.** What about the TGI [56] of the same compound?
**A.** > 100 µM

**Q.** And the TGI [57]?
**A.** > 100 µM

**Q.** How did the TGI [1] turn out when `COc1cccc2c1CCc1sc(CN3CCN(C)CC3)nc1-2` was run?
**A.** > 100 µM

**Q.** And the TGI [2]?
**A.** > 100 µM

**Q.** And the TGI [3]?
**A.** > 100 µM

**Q.** And the TGI [4]?
**A.** > 100 µM

**Q.** And the TGI [5]?
**A.** > 100 µM

**Q.** And the TGI [6]?
**A.** > 100 µM

**Q.** What about the TGI [7] of the same compound?
**A.** > 100 µM

**Q.** What about the TGI [8] of the same compound?
**A.** > 100 µM

**Q.** And the TGI [9]?
**A.** > 100 µM

**Q.** What about the TGI [10] of the same compound?
**A.** 80.1 µM

**Q.** What about the TGI [11] of the same compound?
**A.** > 100 µM

**Q.** And the TGI [12]?
**A.** > 100 µM

**Q.** And the TGI [13]?
**A.** > 100 µM

**Q.** What about the TGI [14] of the same compound?
**A.** 65.7 µM

**Q.** What about the TGI [15] of the same compound?
**A.** 54.1 µM

**Q.** What about the TGI [16] of the same compound?
**A.** > 100 µM

**Q.** What about the TGI [17] of the same compound?
**A.** > 100 µM

**Q.** And the TGI [18]?
**A.** > 100 µM

**Q.** And the TGI [19]?
**A.** > 100 µM

**Q.** And the TGI [21]?
**A.** > 100 µM

**Q.** What about the TGI [23] of the same compound?
**A.** > 100 µM

**Q.** And the TGI [24]?
**A.** > 100 µM

**Q.** And the TGI [25]?
**A.** > 100 µM

**Q.** And the TGI [26]?
**A.** > 100 µM

**Q.** And the TGI [27]?
**A.** > 100 µM

**Q.** What about the TGI [28] of the same compound?
**A.** > 100 µM

**Q.** And the TGI [29]?
**A.** > 100 µM

**Q.** And the TGI [30]?
**A.** > 100 µM

**Q.** And the TGI [31]?
**A.** > 100 µM

**Q.** And the TGI [32]?
**A.** > 100 µM

**Q.** And the TGI [58]?
**A.** > 100 µM

**Q.** What about the TGI [33] of the same compound?
**A.** > 100 µM

**Q.** What about the TGI [34] of the same compound?
**A.** > 100 µM

**Q.** What about the TGI [35] of the same compound?
**A.** > 100 µM

**Q.** And the TGI [59]?
**A.** > 100 µM

**Q.** And the TGI [36]?
**A.** > 100 µM

**Q.** What about the TGI [37] of the same compound?
**A.** > 100 µM

**Q.** What about the TGI [38] of the same compound?
**A.** > 100 µM

**Q.** What about the TGI [39] of the same compound?
**A.** > 100 µM

**Q.** What about the TGI [40] of the same compound?
**A.** > 100 µM

**Q.** And the TGI [41]?
**A.** 53.5 µM

**Q.** What about the TGI [43] of the same compound?
**A.** > 100 µM

**Q.** What about the TGI [44] of the same compound?
**A.** > 100 µM

**Q.** And the TGI [45]?
**A.** > 100 µM

**Q.** And the TGI [47]?
**A.** > 100 µM

**Q.** And the TGI [48]?
**A.** > 100 µM

**Q.** What about the TGI [49] of the same compound?
**A.** > 100 µM

**Q.** What about the TGI [50] of the same compound?
**A.** > 100 µM

**Q.** What about the TGI [51] of the same compound?
**A.** > 100 µM

**Q.** What about the TGI [53] of the same compound?
**A.** > 100 µM

**Q.** What about the TGI [54] of the same compound?
**A.** > 100 µM

**Q.** And the TGI [55]?
**A.** 63.9 µM

**Q.** What about the TGI [56] of the same compound?
**A.** > 100 µM

**Q.** What about the TGI [57] of the same compound?
**A.** > 100 µM

From PubChem BioAssay (NCI)
